Experimental data taken from ChEMBL document CHEMBL3763135, “Synthesis and evaluation of thiophene-based guanylhydrazones (iminoguanidines) efficient against panel of voriconazole-resistant fungal isolates” (Bioorg Med Chem, 2016).
The source made the active and inactive calls. The calls are words filed in the database; no cut-off is given here.

What was measured:
[1] = Hemolytic effect in sheep RBC assessed as release of hemoglobin at 40 ug/ml after 1 hr; type: ADME, cell-based, Ovis aries; settings: erythrocyte
Candida albicans [2] = assay: Antifungal activity against Candida albicans ATCC 10231 by broth dilution method; type: functional
Candida albicans [3] = assay: Antifungal activity against Candida albicans CA5 by broth dilution method; type: functional
Pichia kudriavzevii [4] = assay: Antifungal activity against Candida krusei ATCC 34135 by broth dilution method; type: functional
Candida parapsilosis [5] = assay: Antifungal activity against Candida parapsilosis C27 by broth dilution method; type: functional; settings: Lodderomyces parapsilosis
Aspergillus fumigatus = assay: Antifungal activity against Aspergillus fumigatus ATCC 13073 by broth dilution method; type: functional
Fusarium oxysporum = assay: Antifungal activity against Fusarium oxysporum AB18 by broth dilution method; type: functional
Microsporum canis = assay: Antifungal activity against Microsporum canis DMT2 by broth dilution method; type: functional
[6] = system: Trichophyton mentagrophytes; assay: Antifungal activity against Trichophyton mentagrophytes DMT4 by broth dilution method; type: functional
MRC5 = assay: Cytotoxicity against human MRC5 cells after 48 hrs by MTT assay; type: cell-based; settings: MRC5, 48 h
Candida albicans [7] = assay: Induction of DNA intercalation with Candida albicans genomic DNA at 25 ug/ml after 12 hrs by ethidium bromide staining based gel electrophoresis method
Candida albicans [8] = assay: Antibiofilm activity against Candida albicans assessed as inhibition of Spider medium-induced hyphae formation at sub-MIC after 24 hrs by propidium iodide and FITC-conjugated concanavaline A staining based fluorescence microscopy; type: functional, organism-based
Candida albicans [9] = assay: Antibiofilm activity against Candida albicans ATCC 10231 assessed as disruption of preformed biofilm after 24 hrs by concanavalin A-FITC-staining based fluorescence microscopic analysis; type: functional
Pichia kudriavzevii [10] = assay: Antibiofilm activity against Pichia kudriavzevii ATCC 34135 assessed as disruption of preformed biofilm after 24 hrs by concanavalin A-FITC-staining based fluorescence microscopic analysis; type: functional
Candida parapsilosis [11] = assay: Antibiofilm activity against Candida parapsilosis C27 assessed as disruption of preformed biofilm after 24 hrs by concanavalin A-FITC-staining based fluorescence microscopic analysis; type: functional
[12] = Hemolytic effect in sheep RBC assessed as release of hemoglobin at 25 ug/ml after 1 hr; type: ADME, cell-based, Ovis aries, Erythrocyte; settings: sheep red blood cells, read-out: Activity

Molecule	Activity [1]	MIC (Candida albicans [2])	MIC (Candida albicans [3])	MIC (Pichia kudriavzevii [4])	MIC (Candida parapsilosis [5])	MIC (Aspergillus fumigatus)	MIC (Fusarium oxysporum)	MIC (Microsporum canis)	MIC [6]	IC50 (MRC5)	Activity (Candida albicans [7])	Activity (Candida albicans [8])	MBEC (Candida albicans [9])	MBEC (Pichia kudriavzevii [10])	MBEC (Candida parapsilosis [11])	hemolysis at 1 h, 25 ug/ml [12]
NYSTATIN	35%															
Cl.Cl.N=C(N)N/N=C/c1ccc(-c2ccncc2)s1		15.6 µg/mL	125 µg/mL	> 250 µg/mL	> 250 µg/mL	250 µg/mL	> 250 µg/mL	125 µg/mL	25 µg/mL	25 µg/mL	Active	Active	1000 µg/mL	>1000 µg/mL	>1000 µg/mL	20%
